Measured values reported in US20240025885A1, “TRIAZINE DERIVATIVES AND METHODS OF USE THEREOF” (priority 2022, published 2024).
Where two headings read alike, the source gives them in different places.

Tests used:
[1] = test system: SARS-CoV-2 Omicron hCoV-19/USA/MD HP20874/2021 (B.1.1.529) strain; assay: In vitro antiviral activity against SARS-CoV-2 Omicron B.1.1.529 in Calu-3 cells (NP ELISA, percent virus reduction); type: cell-based; conditions: Severe acute respiratory syndrome coronavirus 2, Calu-3, 48 h
[2] = test system: hCoV-19/USA/Chicago IL/2022 (BA.5.2); assay: In vitro antiviral activity against SARS-CoV-2 BA.5.2 in Calu-3 cells (NP ELISA, percent virus reduction); type: cell-based; conditions: Severe acute respiratory syndrome coronavirus 2, Calu-3, 48 h
in vivo [3] = assay: in vivo
Protocol: At Model Pharmacokinetic Properties Testing
(§1) Oral administration: the compound was administered with a volume ratio of Solutol:PEG400:Tween80:Saline=10:40:2:48 at a dose of 10 mg/kg. blood was taken continuously from the fundus venous plexus at 0.25 h, 0.5 h, 1 h, 2 h, 4 h, 8 h, 10 h, 12 h, and 24 h after administration in EP tubes containing EDTA, centrifuged at 8000 rpm/min for 5 min and then the upper layer of plasma was frozen at −80° C. and stored for LC-MS/MS analysis.
(§2) Intravenous administration: the compound was administered with a volume ratio of 10% DMSO/30% PEG400/60% water at a dose of 1 mg/kg). At 0.0833 h, 0.25 h, 0.5 h, 1 h, 2 h, 4 h, 8 h, 12 h and 24 h after drug administration, blood was serially collected from the fundus venous plexus in EP tubes containing EDTA, centrifuged at 8000 rpm/min for 5 min and then the upper layer of plasma was frozen at −80° C. and stored for LC-MS/MS analysis.
The pharmacokinetic parameters were calculated using WinNonlin software base on the blood concentration-time data obtained from the tests.

in vivo [4] = conditions: crab-eating monkey, plasma
Protocol: Crab-Eating Monkey Pharmacokinetic Properties Testing
as §1, with “of 2” for “of 10”, “mg/kg. The” for “mg/kg.”, “continuously” for “continuously from the fundus venous plexus”, “12 h” for “12 h,”, “after drug” for “after”, “5 min,” for “5 min”
as §2, with “with” for “with a volume ratio of”, “The blood was taken continuously at” for “At”, “administration” for “administration, blood was serially collected from the fundus venous plexus”
The pharmacokinetic parameters were calculated from the blood concentration-time data obtained from the tests using WinNonlin software.

[5] = intravenous, 1 mg/kg, read-out: Intravenous injection AUClast
[6] = oral, 2 mg/kg, read-out: Oral AUClast

Structure (SMILES) | EC50 [1] [nM] | EC50 [2] [nM] | AUC(0-t) (in vivo [3]; iv, 1 mg/kg) [ng·h/mL] | AUC(0-t) (in vivo [3]; po, 10 mg/kg) [ng·h/mL] | AUC(0-t) (in vivo [4]; [5]) [ng·h/mL] | AUC(0-t) (in vivo [4]; [6]) [ng·h/mL]
Cn1cc2cc(Nc3nc(=O)n(Cc4nccs4)c(=O)n3Cc3cc(F)c(F)cc3F)c(Cl)cc2n1 [Compound 71] | 34 | 45 |  |  |  | 
[2H]C([2H])([2H])n1cc2cc(Nc3nc(=O)n(Cc4ccon4)c(=O)n3Cc3cc(F)c(F)c(F)c3)c(Cl)cc2n1 [Compound 41] | 31 | 33 | 26500 | 234000 | 40600 | 63300
O=c1nc(Nc2cc3cn(CCO)nc3cc2Cl)n(Cc2cc(F)c(F)cc2F)c(=O)n1Cc1ccon1 [Compound 70] | 18 | 21 |  |  | 4870 | 9880
[2H]C([2H])([2H])n1cc2cc(Nc3nc(=O)n(Cc4cscn4)c(=O)n3Cc3cc(F)c(F)c(F)c3)c(Cl)cc2n1 [Compound 40] | 23 | 40 | 9880 | 134000 | 36500 | 62400
[2H]C([2H])([2H])n1cc2cc(Nc3nc(=O)n(Cc4cocn4)c(=O)n3Cc3cc(F)c(F)cc3F)c(Cl)cc2n1 [Compound 18] |  |  |  |  | 4890 | 10400
Cn1cc2cc(Nc3nc(=O)n(Cc4ncsn4)c(=O)n3Cc3cc(F)c(F)cc3F)c(Cl)cc2n1 [Compound 78] | 67 | 59 |  |  |  | 
[2H]C([2H])([2H])n1cc2cc(Nc3nc(=O)n(Cc4ccon4)c(=O)n3Cc3cc(F)c(F)cc3F)c(Cl)cc2n1 [Compound 17] | 30 | 16 | 25400 | 189000 | 41000 | 64300
[2H]C([2H])([2H])n1cc2cc(Nc3nc(=O)n(Cc4cscn4)c(=O)n3Cc3cc(F)c(F)cc3F)c(Cl)cc2n1 [Compound 16] | 16 | 22 | 7040 | 139000 | 3680 | 10100
Cn1cc2cc(Nc3nc(=O)n(Cc4cocn4)c(=O)n3Cc3cc(F)c(F)cc3F)c(Cl)cc2n1 [Compound 26] |  |  | 7790 | 14100 |  | 
O=c1nc(Nc2cc3cn(CCO)nc3cc2Cl)n(Cc2cc(F)c(F)cc2F)c(=O)n1Cc1cscn1 [Compound 97] |  |  | 5670 | 7660 |  | 
[2H]c1c2cc(Nc3nc(=O)n(Cc4ccon4)c(=O)n3Cc3cc(F)c(F)cc3F)c(Cl)cc2nn1C [Compound 107] |  |  | 21400 | 209000 |  | 
